One data set relates to Chenopodium. The experiment in a line: Pre-emergence test/greenhouse. The class given is in vivo. The note with it: greenhouse, 125 g of ai./ha, after three weeks, 0%=no effect, 100%=total destruction. The method, then: (§1) Solvent: 5 parts by weight of acetone
(§2) Emulsifier: 1 part by weight of alkylaryl polyglycol ether
(§3) To produce a suitable preparation of active compound, 1 part by weight of active compound is mixed with the stated amount of solvent, the stated amount of emulsifier is added and the concentrate is diluted with water to the desired concentration.
(§4) Seeds of the test plants are sown in normal soil. After about 24 hours, the soil is watered with the preparation of the active compound. Advantageously, the amount of water per unit area is kept constant. The active compound concentration in the preparation is not important, only the active compound application rate per unit area is critical.
(§5) After three weeks, the degree of damage to the plants is rated in % damage in comparison with the development of the untreated control. The figures denote:
(§6) 0%=no effect (like untreated control)

Another data set relates to Wheat. The experiment in a line: Pre-emergence test/greenhouse. The class given is in vivo. The note with it: greenhouse, 125 g of ai./ha, after three weeks, 0%=no effect, 100%=total destruction. The method, then:
as §1, §2, §3, §4, §5, §6

The subject of another data set is Matricaria. Briefly: Pre-emergence test/greenhouse. The note with it: greenhouse, 125 g of ai./ha, after three weeks, 0%=no effect, 100%=total destruction. It counts as in vivo. The method, then:
as §1, §2, §3, §4, §5, §6

A further data set has as its system Solanum. Briefly: Pre-emergence test/greenhouse. The class given is in vivo. The note with it: greenhouse, 125 g of ai./ha, after three weeks, 0%=no effect, 100%=total destruction. The method, then:
as §1, §2, §3, §4, §5, §6

A further data set has as its system Bromus. Briefly: Pre-emergence test/greenhouse. The class given is in vivo. The note with it: greenhouse, 125 g of ai./ha, after three weeks, 0%=no effect, 100%=total destruction. The method, then: as §1, §2, §3, §4, §5, §6
A further data set relates to Lolium. Briefly: Pre-emergence test/greenhouse. The class given is in vivo. The note with it: greenhouse, 125 g of ai./ha, after three weeks, 0%=no effect, 100%=total destruction. The method, then: as §1, §2, §3, §4, §5, §6
The subject of data set [1] is Setaria. The experiment in a line: Pre-emergence test/greenhouse. It counts as in vivo. The note with it: greenhouse, 125 g of ai./ha, after three weeks, 0%=no effect, 100%=total destruction. The method, then: as §1, §2, §3, §4, §5, §6
Another data set concerns Cyperus. Briefly: Pre-emergence test/greenhouse. The class given is in vivo. The note with it: greenhouse, 125 g of ai./ha, after three weeks, 0%=no effect, 100%=total destruction. The method, then: as §1, §2, §3, §4, §5, §6
The test system of data set [2] is weeds. Briefly: Pre-emergence test, summary for weeds. The class given is in vivo. The note with it: result in words. The method, then:
as §1, §2, §3, §4, §5, §6

Data set [3] concerns Maize. Briefly: Pre-emergence test/greenhouse. It counts as in vivo. The note with it: greenhouse, 125 g of ai./ha, after three weeks, 0%=no effect, 100%=total destruction. The method, then:
as §1, §2, §3, §4, §5, §6

Another data set deals with Alopecurus. The experiment in a line: Pre-emergence test/greenhouse. It counts as in vivo. The note with it: greenhouse, 250 g of ai./ha, after three weeks, 0%=no effect, 100%=total destruction. The method, then:
as §1, §2, §3, §4, §5, §6

In data set [4] the test system is Sinapis. The experiment in a line: Pre-emergence test/greenhouse. The class given is in vivo. The note with it: greenhouse, 250 g of ai./ha, after three weeks, 0%=no effect, 100%=total destruction. The method, then:
as §1, §2, §3, §4, §5, §6

Data set [5] concerns Amaranthus. Briefly: Pre-emergence test/greenhouse. It counts as in vivo. The note with it: greenhouse, 250 g of ai./ha, after three weeks, 0%=no effect, 100%=total destruction. The method, then:
as §1, §2, §3, §4, §5, §6

Data set [6] has as its system Abutilon. Briefly: Pre-emergence test/greenhouse. The note with it: greenhouse, 250 g of ai./ha, after three weeks, 0%=no effect, 100%=total destruction. The class given is in vivo. The method, then:
as §1, §2, §3, §4, §5, §6

The next data set has as its system Xanthium. Briefly: Pre-emergence test/greenhouse. It counts as in vivo. The note with it: greenhouse, 250 g of ai./ha, after three weeks, 0%=no effect, 100%=total destruction. The method, then:
as §1, §2, §3, §4, §5, §6

For data set [7], the system named is Maize. The experiment in a line: Post-emergence test/greenhouse. It counts as in vivo. The note with it: greenhouse, 250 g of ai/ha, after three weeks, 0%=no effect, 100%=total destruction. The method, then:
as §1, §2, §3
(§7) Test plants which have a height of 5-15 cm are sprayed with the preparation of the active compound in such a way as to apply the particular amounts of active compound desired per unit area. The concentration of the spray liquor is chosen so that the amounts of active compound desired in each case are applied in 1000 l of water/ha.
(§8) After three weeks, the degree of damage to the plants is rated in % damage in comparison with the development of the untreated control.
as §6

Data set [8] has as its system Sinapis. Briefly: Post-emergence test/greenhouse. The class given is in vivo. The note with it: greenhouse, 250 g of ai/ha, after three weeks, 0%=no effect, 100%=total destruction. The method, then: as §1, §2, §3, §7, §8, §6
The subject of data set [9] is Amaranthus. Briefly: Post-emergence test/greenhouse. The note with it: greenhouse, 250 g of ai/ha, after three weeks, 0%=no effect, 100%=total destruction. The class given is in vivo. The method, then:
as §1, §2, §3, §7, §8, §6

In data set [10] the test system is Setaria. Briefly: Post-emergence test/greenhouse. The class given is in vivo. The note with it: greenhouse, 250 g of ai/ha, after three weeks, 0%=no effect, 100%=total destruction. The method, then:
as §1, §2, §3, §7, §8, §6

The subject of data set [11] is weeds. Briefly: Post-emergence test, summary for weeds. The class given is in vivo. The note with it: result in words. The method, then:
as §1, §2, §3, §7, §8, §6

For data set [12], the system named is Abutilon. Briefly: Post-emergence test/greenhouse. The class given is in vivo. The note with it: greenhouse, 250 g of ai/ha, after three weeks, 0%=no effect, 100%=total destruction. The method, then: as §1, §2, §3, §7, §8, §6

`CCOc1nn(C(=O)NS(=O)(=O)c2c(C)csc2C)c(=O)n1C` [Example 1, 5-ethoxy-4-methyl-2-(2,4-dimethyl-thien-3-yl-sulphonylaminocarbonyl)-2,4-dihydro-3H-1,2,4-triazol-3-one] returned a melting point of 158 °C. Further, the “degree of damage to the plants, Chenopodium” value (shortened to “degree of damage … Chenopodium”) with Chenopodium came to 100%. Moreover, in the data set on Wheat, the “degree of damage to the plants, Wheat” value is 0%. The “degree of damage to the plants, Matricaria” value (“degree of damage … Matricaria” below) with Matricaria turned out to be 100%. The “degree of damage to the plants, Solanum” value with Solanum came out at 100%. Besides, in the data set on Bromus, the “degree of damage to the plants, Bromus” value came to 100%. Also, the “degree of damage to the plants, Lolium” value in the data set on Lolium is given as 100%. Also, the “degree of damage to the plants, Setaria” value in the data set with Setaria [1] is given as 100%. For the same compound, in the data set with Cyperus, the “degree of damage to the plants, Cyperus” value turned out to be 95%. Besides, in the data set with weeds [2], the activity against weeds result was “very strong activity”.

In turn, `Cc1nc(C(=O)NS(=O)(=O)c2c(C)csc2C)no1` [Example 2, N-(2,4-dimethyl-thien-3-yl-sulphonyl)-5-methyl-1,2,4-oxadiazol-3-carboxamide] showed a melting point of 164 °C.

Consider `CCc1nn(C(=O)NS(=O)(=O)c2c(C)csc2C)c(=O)n1C` [Example 3], for which the “degree of damage … Chenopodium” value with Chenopodium is listed as 100%. Further, in the data set on Maize [3], the “degree of damage to the plants, Maize” value stood at 5%. Besides, the “degree of damage … Matricaria” value with Matricaria came to 100%. Further, the “degree of damage to the plants, Solanum” value with Solanum came to 100%. Besides, the “degree of damage to the plants, Bromus” value in the data set on Bromus is 100%. For the same compound, the “degree of damage to the plants, Lolium” value in the data set with Lolium is reported as 100%. Moreover, the “degree of damage to the plants, Setaria” value with Setaria [1] was 100%. Besides, the “degree of damage to the plants, Cyperus” value with Cyperus came out at 100%. In the data set on weeds [2], the activity against weeds result is on record as “very strong activity”.

`CSc1nn(C(=O)NS(=O)(=O)c2c(C)csc2C)c(=O)n1C` [Example 4]: the “degree of damage … Chenopodium” value with Chenopodium is reported as 90%. Further, the “degree of damage to the plants, Wheat” value with Wheat worked out at 0%. Besides, in the data set with Maize [3], the “degree of damage to the plants, Maize” value is given as 0%. In the data set with Matricaria, the “degree of damage … Matricaria” value is listed as 90%. In the data set on Solanum, the “degree of damage to the plants, Solanum” value was found to be 80%. For the same compound, the “degree of damage to the plants, Bromus” value in the data set with Bromus turned out to be 95%. Besides, the “degree of damage to the plants, Lolium” value in the data set on Lolium is 100%. Moreover, the “degree of damage to the plants, Setaria” value with Setaria [1] came out at 100%. Besides, the “degree of damage to the plants, Cyperus” value in the data set on Cyperus came to 95%. Besides, in the data set with weeds [2], the activity against weeds result was “very strong activity”.

`CCCOc1nn(C(=O)NS(=O)(=O)c2c(C)csc2C)c(=O)n1C` [Example 5]: the “degree of damage to the plants, Alopecurus” value with Alopecurus came to 70%. In the data set on Sinapis [4], the “degree of damage to the plants, Sinapis” value was found to be 95%. The “degree of damage to the plants, Amaranthus” value (“degree of damage … Amaranthus” for short) with Amaranthus [5] was determined as 90%. Besides, the “degree of damage to the plants, Abutilon” value in the data set with Abutilon [6] worked out at 90%. In addition, the “degree of damage to the plants, Xanthium” value with Xanthium came to 90%. For the same compound, the activity against weeds result with weeds [2] is reported as “very strong activity”.

As for `Cc1csc(C)c1S(=O)(=O)NC(=O)n1nc(OC(C)C)n(C)c1=O` [Example 6], the “degree of damage to the plants, Maize” value in the data set on Maize [7] was 10%. Also, the “degree of damage to the plants, Sinapis” value in the data set on Sinapis [8] is recorded as 100%. Moreover, the “degree of damage … Amaranthus” value in the data set with Amaranthus [9] is on record as 90%. Also, the “degree of damage to the plants, Setaria” value in the data set on Setaria [10] amounted to 80%. The activity against weeds result in the data set with weeds [11] is “very strong activity”.

On to `COc1nn(C(=O)NS(=O)(=O)c2c(C)csc2C)c(=O)n1C` [Example 11], for which, in the data set on Chenopodium, the “degree of damage … Chenopodium” value is given as 95%. Also, in the data set on Matricaria, the “degree of damage … Matricaria” value amounted to 100%. The “degree of damage to the plants, Solanum” value in the data set on Solanum stood at 95%. Also, in the data set with Bromus, the “degree of damage to the plants, Bromus” value came to 100%. Also, the “degree of damage to the plants, Lolium” value in the data set with Lolium amounted to 100%. For the same compound, the “degree of damage to the plants, Setaria” value in the data set with Setaria [1] was 100%. For the same compound, the “degree of damage to the plants, Cyperus” value in the data set on Cyperus is recorded as 100%. In addition, the activity against weeds entry in the data set with weeds [2] is listed as “very strong activity”.

As to `CCOc1nn(C(=O)NS(=O)(=O)c2c(C)csc2C)c(=O)n1C1CC1` [Example 12], the “degree of damage to the plants, Alopecurus” value with Alopecurus was determined as 70%. For the same compound, the “degree of damage to the plants, Sinapis” value with Sinapis [4] is recorded as 95%. Also, the “degree of damage … Amaranthus” value in the data set with Amaranthus [5] was 90%. Further, the “degree of damage to the plants, Abutilon” value in the data set on Abutilon [6] came out at 90%. The activity against weeds entry with weeds [2] is recorded as “very strong activity”.

Consider `CCOc1nn(C(=O)NS(=O)(=O)c2c(C)csc2C)c(=O)n1CC` [Example 13], for which the “degree of damage to the plants, Sinapis” value in the data set with Sinapis [8] stood at 100%. For the same compound, the “degree of damage … Amaranthus” value in the data set with Amaranthus [9] was 100%. The “degree of damage to the plants, Abutilon” value in the data set with Abutilon [12] turned out to be 80%. Further, the “degree of damage to the plants, Setaria” value in the data set on Setaria [10] worked out at 80%. Moreover, the activity against weeds result with weeds [11] is given as “very strong activity”.

For the compound `C#CCSc1nn(C(=O)NS(=O)(=O)c2c(C)csc2C)c(=O)n1C` [Example 14], the “degree of damage to the plants, Maize” value in the data set with Maize [7] turned out to be 10%. The “degree of damage to the plants, Sinapis” value in the data set on Sinapis [8] is on record as 95%. Also, in the data set on Amaranthus [9], the “degree of damage … Amaranthus” value was 95%. In addition, the “degree of damage to the plants, Setaria” value in the data set on Setaria [10] was found to be 90%. The activity against weeds result with weeds [11] is on record as “very strong activity”.

What is called melting point is the temperature, or range, at which the solid turns liquid.
